Results reported in patent US8017612B2, “Piperazine compound and use thereof as a HCV polymerase inhibitor” (priority 2006, dated 2011).
pIC50: −log10 of the molar value.

What was measured:
[1] = target: T1, HCV polymerase (NS5B) type 1b (Hepatitis C virus genotype 1b, UniProt P26663); assay: Assay of enzyme (HCV polymerase) inhibitory activity, type 1b enzyme; format: biochemical, HCV BK strain (type 1b)
T1 construct: a region encoding NS5B (J Virol 1991 March, 65(3), 1105-13, 544 amino acids after deletion of 47 amino acids on the C-terminal); 6xHis (C); made in house; host or cells: Escherichia coli
In short: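 NS5B from HCV BK strain (type 1b), C-terminal 47 aa deleted, C-terminal His6-tagged, E. coli-expressed, 0.5 μg/ml, with ~450 nt substrate RNA carrying the 3′ UTR (polyU, 3′X) at 5 μg/ml. Incubation 60 min at 25 °C with 50 μM ATP/GTP/CTP, 2 μM UTP plus [3H]UTP, pH 7.5 Tris.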

[2] = target: T2, HCV polymerase (NS5B) type 1a (Hepatitis C virus genotype 1a, UniProt P26664); assay: Assay of enzyme (HCV polymerase) inhibitory activity, type 1a enzyme; format: biochemical, HCV type 1a (cloned from the blood of patients)
T2 construct: made in house; host or cells: Escherichia coli (by the 'similar method' of the 1b enzyme)
In short: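 Patient-derived type 1a NS5B (C-terminal 47-aa deletion, His-tagged, E. coli-expressed) at 1.5 μg/ml was reacted with 5 μg/ml 3′UTR-containing substrate RNA, 50 μM ATP/GTP/CTP, 2 μM UTP plus [3H]UTP, pH 7.5, 25° C for 60 min. TCA-precipitated RNA radioactivity was counted; IC50 from ± compound.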

[3] = HCV polymerase inhibitory activity (IC50), 1b, type 1b enzyme 0.5 μg/ml, 25° C., 60 min
[4] = HCV polymerase inhibitory activity (IC50), 1a, type 1a enzyme 1.5 μg/ml, 25° C., 60 min
[5] = HCV polymerase inhibitory activity IC50, 1b, type 1b enzyme
[6] = HCV polymerase inhibitory activity IC50, 1a, type 1a enzyme

| SMILES | pIC50 [1, 3] | pIC50 [2, 4] | pIC50 [1, 5] | pIC50 [2, 6] |
| --- | --- | --- | --- | --- |
| CC(=O)N1CCN(S(=O)(=O)c2ccc(CC(C)(C)C)cc2)[C@@H](C(=O)NCc2ccc(C(C)C)cc2)C1 [Example 237, (R)-4-acetyl-1-[4-(2,2-dimethyl-propyl)-benzenesulfonyl]-piperazine-2-carboxylic acid 4-isopropyl-benzylamide] | > 7.00 | > 7.00 | – | – |
| CN1CCN(CC(=O)N2CCN(S(=O)(=O)c3ccc(I)cc3)[C@@H](C(=O)NCc3ccc(N(C)C)cc3)C2)CC1 [Example 346, 1-(4-iodo-benzenesulfonyl)-4-[2-(4-methyl-piperazin-1-yl)-acetyl]-piperazine-2-carboxylic acid 4-dimethylamino-benzylamide] | < 6.00 | < 6.00 | – | – |
| CC(C)c1ccc(CNC(=O)[C@H]2CN(C(=O)Nc3ccccc3)CCN2S(=O)(=O)c2ccc(C(F)(F)F)cc2)cc1 [Example 178, (R)-4-(4-trifluoromethyl-benzenesulfonyl)-piperazine-1,3-dicarboxylic acid 3-(4-isopropyl-benzylamide) 1-phenylamide] | 6.00 to 7.00 | 6.00 to 7.00 | – | – |
| CC(=O)N1CCN(S(=O)(=O)c2ccc(C(C)C)cc2)C(C(=O)NCCc2c[nH]c3ccccc23)C1 (stereo not shown) [Example 79, 4-acetyl-1-(4-isopropyl-benzenesulfonyl)-piperazine-2-carboxylic acid [2-(1H-indol-3-yl)-ethyl]-amide] | < 6.00 | < 6.00 | – | – |
| CC[N+](CC)(CC)Cc1cnc(N2CCN(S(=O)(=O)c3ccc(OC(F)(F)F)cc3)[C@@H](C(=O)NCc3ccc(C(C)(C)C)cc3)C2)cn1 [Example 1095, [(R)-3-(4-tert-butyl-benzylcarbamoyl)-4-(4-trifluoromethoxy-benzenesulfonyl)-3,4,5,6-tetrahydro-2H-[1,2′]bipyrazinyl-5′-ylmethyl]-triethyl-ammonium trifluoro-methanesulfonate] | – | – | 6.00 to 7.00 | 6.00 to 7.00 |
| CCC(F)(F)c1ccc(CNC(=O)[C@H]2CN(c3cnc4cncnc4n3)CCN2S(=O)(=O)c2cc3ccccc3s2)cc1 [Example 738, (R)-1-(benzo[b]thiophene-2-sulfonyl)-4-pteridin-7-yl-piperazine-2-carboxylic acid 4-(1,1-difluoro-propyl)-benzylamide] | – | – | > 7.00 | > 7.00 |
| CC(=O)N1CCN(S(=O)(=O)c2ccc(C(C)C)cc2)[C@@H](C(=O)NCCN2CCOCC2)C1 [Example 403, (R)-4-acetyl-1-(4-isopropyl-benzenesulfonyl)-piperazine-2-carboxylic acid (2-morpholin-4-yl-ethyl)-amide] | < 6.00 | < 6.00 | – | – |
| CC(C)(C)c1ccc(CNC(=O)[C@H]2CN(c3ccc(C(=O)O)nc3)CCN2S(=O)(=O)c2ccc(OC(F)(F)F)cc2)cc1 [Example 620, 5-[(R)-3-(4-tert-butyl-benzylcarbamoyl)-4-(4-trifluoromethoxy-benzenesulfonyl)-piperazin-1-yl]-pyridine-2-carboxylic acid] | > 7.00 | > 7.00 | – | – |
| CC(=O)N1CCN(S(=O)(=O)c2ccc(Oc3ccc(Cl)cc3)cc2)C(C(=O)NCc2ccc(C(F)(F)F)cc2)C1 (stereo not shown) [Example 25, 4-acetyl-1-[4-(4-chloro-phenoxy)-benzenesulfonyl]-piperazine-2-carboxylic acid 4-trifluoromethyl-benzylamide] | < 6.00 | < 6.00 | – | – |
| CCCc1ccc(CNC(=O)[C@H]2CN(c3cnc4cncc(C(=O)O)c4n3)CCN2S(=O)(=O)c2ccc(Cl)s2)cc1 [Example 860, 2-[(R)-4-(5-chloro-thiophene-2-sulfonyl)-3-(4-propyl-benzylcarbamoyl)-piperazin-1-yl]-pyrido[3,4-b]pyrazine-8-carboxylic acid] | – | – | > 7.00 | > 7.00 |
| CN1CCN(Cc2cnc(N3CCN(S(=O)(=O)c4ccc(OC(F)(F)F)cc4)[C@@H](C(=O)NCc4ccc(C(C)(C)C)cc4)C3)cn2)CC1 [Example 594, (R)-5′-(4-methyl-piperazin-1-ylmethyl)-4-(4-trifluoromethoxy-benzenesulfonyl)-3,4,5,6-tetrahydro-2H-[1,2′]bipyrazinyl-3-carboxylic acid 4-tert-butyl-benzylamide] | > 7.00 | > 7.00 | – | – |
